From patent US10968225B2, “Compounds and compositions for the treatment of cystic fibrosis” (Fondazione Istituto Italiano Di Tecnologia, priority 2017, dated 2021)

Molecular target: T1, mutant CFTR (Homo sapiens, UniProt P13569, DEL508-508)
T1 construct: expressed in transfected cells
Experiment: Fluorescence (HS-YFP) assay for CFTR activity, corrector assay
Assay type: cell-based
Details: CFBE41o- and FRT cells with stable expression of mutant CFTR, read-out: activity (EC50)

T1 sequence (P13569 with tags, fused parts or gaps DEL508-508): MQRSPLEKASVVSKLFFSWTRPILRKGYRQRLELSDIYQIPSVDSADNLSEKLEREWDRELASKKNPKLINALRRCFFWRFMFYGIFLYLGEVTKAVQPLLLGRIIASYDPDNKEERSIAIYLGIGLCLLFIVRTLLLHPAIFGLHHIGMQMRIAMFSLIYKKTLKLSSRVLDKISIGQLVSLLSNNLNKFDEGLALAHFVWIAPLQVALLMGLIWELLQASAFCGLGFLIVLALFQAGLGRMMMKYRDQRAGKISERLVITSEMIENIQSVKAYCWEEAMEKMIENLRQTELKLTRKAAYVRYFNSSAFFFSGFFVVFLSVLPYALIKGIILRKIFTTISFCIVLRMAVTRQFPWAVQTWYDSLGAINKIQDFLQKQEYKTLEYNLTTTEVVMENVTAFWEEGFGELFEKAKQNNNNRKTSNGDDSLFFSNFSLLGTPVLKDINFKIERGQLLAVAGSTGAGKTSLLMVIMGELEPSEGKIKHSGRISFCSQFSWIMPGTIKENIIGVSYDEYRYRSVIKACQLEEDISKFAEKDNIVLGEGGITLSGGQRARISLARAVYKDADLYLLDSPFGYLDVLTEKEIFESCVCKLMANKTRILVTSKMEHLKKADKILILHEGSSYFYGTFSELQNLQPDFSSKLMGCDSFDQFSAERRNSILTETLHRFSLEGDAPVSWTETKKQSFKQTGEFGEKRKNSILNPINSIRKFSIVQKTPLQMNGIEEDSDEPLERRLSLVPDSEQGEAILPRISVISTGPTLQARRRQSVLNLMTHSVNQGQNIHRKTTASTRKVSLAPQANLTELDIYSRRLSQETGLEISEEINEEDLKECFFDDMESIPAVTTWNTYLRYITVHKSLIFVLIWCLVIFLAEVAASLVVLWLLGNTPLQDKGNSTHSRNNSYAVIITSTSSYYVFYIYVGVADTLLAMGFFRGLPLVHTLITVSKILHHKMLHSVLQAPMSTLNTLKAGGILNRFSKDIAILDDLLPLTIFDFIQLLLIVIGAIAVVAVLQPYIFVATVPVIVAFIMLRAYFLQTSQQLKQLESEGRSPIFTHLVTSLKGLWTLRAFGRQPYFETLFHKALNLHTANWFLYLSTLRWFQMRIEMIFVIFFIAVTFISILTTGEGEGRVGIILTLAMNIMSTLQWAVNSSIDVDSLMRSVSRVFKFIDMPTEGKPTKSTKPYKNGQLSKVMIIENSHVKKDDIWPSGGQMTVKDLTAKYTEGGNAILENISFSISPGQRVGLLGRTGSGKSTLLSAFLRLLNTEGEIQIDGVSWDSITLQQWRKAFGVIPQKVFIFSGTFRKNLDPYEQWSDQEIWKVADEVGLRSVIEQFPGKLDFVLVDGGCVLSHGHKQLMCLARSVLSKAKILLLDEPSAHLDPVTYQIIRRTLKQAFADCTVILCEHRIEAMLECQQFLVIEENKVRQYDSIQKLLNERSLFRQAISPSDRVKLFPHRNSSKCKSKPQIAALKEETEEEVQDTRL

Q: Which EC50 does the source give for `CN(C(=O)c1cccc(-n2nc(C(F)(F)F)c3c2C(Oc2ncc(C(=O)O)cn2)COC3)c1)c1cnc2c(c1)OCC2` (racemic) [Compound 300, 2-[[1-[3-[2,3-Dihydrofuro[3,2-b]pyridin-6-yl(methyl)carbamoyl]phenyl]-3-(trifluoromethyl)-6,7-dihydro-4H-pyrano[4,3-c]pyrazol-7-yl]oxy]pyrimidine-5-carboxylic acid] here?
A: Its EC50 is < 1000 nM.

Q: With `CN(C(=O)c1cccc(-n2nc(C(F)(F)F)c3c2C(n2cc(C(=O)O)ccc2=O)COC3)c1)c1ccc2c(c1)OC(F)(F)O2` (racemic) [Compound 301, (rac)-6-oxo-1-[1-[3-[(2,2-difluoro-1,3-benzodioxol-5-yl)-methyl-carbamoyl]phenyl]-3-(trifluoromethyl)-6,7-dihydro-4H-pyrano[4,3-c]pyrazol-7-yl]pyridine-3-carboxylic acid] as the molecule, how does the EC50 read?
A: Its EC50 is 1000 to 2000 nM.

Q: Which EC50 does the source give for `CN(C(=O)c1cccc(-n2nc(C(F)(F)F)c3c2C(Oc2ccc(C(=O)O)nn2)CCC3)c1)c1ccc2c(c1)OC(F)(F)O2` (racemic) [Compound 302, 6-[[1-[3-[(2,2-Difluoro-1,3-benzodioxol-5-yl)-methyl-carbamoyl]phenyl]-3-(trifluoromethyl)-4,5,6,7-tetrahydroindazol-7-yl]oxy]pyridazine-3-carboxylic acid] here?
A: Its EC50 is > 2000 nM.

Q: With `CN(C(=O)c1cccc(-n2nc(C(F)(F)F)c3c2C(Oc2ccc(C(=O)O)cc2)CCC3)c1)c1ccc2c(c1)S(=O)(=O)CC2` (racemic) [Compound 303, 4-[[1-[3-[(1,1-Dioxo-2,3-dihydrobenzothiophen-6-yl)-methyl-carbamoyl]phenyl]-3-(trifluoromethyl)-4,5,6,7-tetrahydroindazol-7-yl]oxy]benzoic acid] as the molecule, how does the EC50 read?
A: Its EC50 is > 2000 nM.

Q: With `CN(C(=O)c1cccc(-n2nc(C(F)(F)F)c3c2C(Oc2ncc(C(=O)O)cn2)COC3)c1)c1cnc2c(c1)CCC2` (racemic) [Compound 305, (rac)-2-[[1-[3-[6,7-dihydro-5H-cyclopenta[b]pyridin-3-yl(methyl)carbamoyl]phenyl]-3-(trifluoro-methyl)-6,7-dihydro-4H-pyrano[4,3-c]pyrazol-7-yl]oxy]pyrimidine-5-carboxylic acid] as the molecule, how does the EC50 read?
A: The EC50 was < 1000 nM.

Q: For `COc1ncc(N(C)C(=O)c2cccc(-n3nc(C(F)(F)F)c4c3C(Oc3ccc(C(=O)O)cc3)COC4)c2)cn1` (racemic) [Compound 306, 4-[[1-[3-[(2-Methoxypyrimidin-5-yl)-methyl-carbamoyl]phenyl]-3-(trifluoromethyl)-6,7-dihydro-4H-pyrano[4,3-c]pyrazol-7-yl]oxy]benzoic acid], which EC50 is on record?
A: The EC50 was 1000 to 2000 nM.

Q: `CN(C(=O)c1cccc(-n2nc(C(F)(F)F)c3c2C(Oc2ccc(C(=O)O)cc2)CCC3)c1)c1cncc(F)c1` (racemic) [Compound 307, (rac)-4-[[1-[3-[(5-fluoro-3-pyridyl)methyl-carbamoyl]phenyl]-3-(trifluoromethyl)-4,5,6,7-tetrahydroindazol-7-yl]oxy]benzoic acid] was tested. Which EC50 did it give?
A: Its EC50 is > 2000 nM.

Q: Which EC50 does the source give for `COc1cc(N(C)C(=O)c2cccc(-n3nc(C(F)(F)F)c4c3C(Oc3ccc(C(=O)O)cc3)CCC4)c2)ccc1F` (racemic) [Compound 308, 4-[[1-[3-[(4-Fluoro-3-methoxy-phenyl)-methyl-carbamoyl]phenyl]-3-(trifluoromethyl)-4,5,6,7-tetrahydroindazol-7-yl]oxy]benzoic acid] here?
A: Its EC50 is > 2000 nM.

Q: Which EC50 does the source give for `CN(C(=O)c1cccc(-n2nc(C(F)(F)F)c3c2C(Oc2ccc(C(=O)O)cc2)CCC3)c1)c1cncc(Cl)c1` (racemic) [Compound 309, 4-[[1-[3-[(5-chloro-3-pyridyl)-methyl-carbamoyl]phenyl]-3-(trifluoromethyl)-4,5,6,7-tetrahydroindazol-7-yl]oxy]benzoic acid] here?
A: The EC50 was > 2000 nM.

Q: Which EC50 does the source give for `CN(C(=O)c1cccc(-n2nc(C(F)(F)F)c3c2C(Oc2ccc(C(=O)O)cc2)CCC3)c1)c1cncc(C#N)c1` (racemic) [Compound 310, 4-[[1-[3-[(5-Cyano-3-pyridyl)-methyl-carbamoyl]phenyl]-3-(trifluoromethyl)-4,5,6,7-tetrahydroindazol-7-yl]oxy]benzoic acid] here?
A: Its EC50 is 1000 to 2000 nM.

Q: How did the EC50 turn out when `COc1ccc(N(C)C(=O)c2cccc(-n3nc(C(F)(F)F)c4c3C(Oc3ccc(C(=O)O)cc3)CCC4)c2)cc1OC` (racemic) [Compound 311, 4-[[1-[3-[(3,4-Dimethoxyphenyl)-methyl-carbamoyl]phenyl]-3-(trifluoromethyl)-4,5,6,7-tetrahydroindazol-7-yl]oxy]benzoic acid] was run?
A: Its EC50 is > 2000 nM.

Q: `CC(C)Oc1cncc(N(C)C(=O)c2cccc(-n3nc(C(F)(F)F)c4c3C(Oc3ccc(C(=O)O)cc3)CCC4)c2)c1` (racemic) [Compound 312, 4-[[1-[3-[(5-Isopropoxy-3-pyridyl)-methyl-carbamoyl]phenyl]-3-(trifluoromethyl)-4,5,6,7-tetrahydroindazol-7-yl]oxy]benzoic acid] was tested. Which EC50 did it give?
A: Its EC50 is 1000 to 2000 nM.

Q: Which EC50 does the source give for `CN(C(=O)c1cccc(-n2nc(C(F)(F)F)c3c2C(Oc2ccc(C(=O)O)cc2)CCC3)c1)c1cnc(OC2CC2)nc1` (racemic) [Compound 313, 4-[[1-[3-[[2-(Cyclopropoxy)pyrimidin-5-yl]-methyl-carbamoyl]phenyl]-3-(trifluoromethyl)-4,5,6,7-tetrahydroindazol-7-yl]oxy]benzoic acid] here?
A: The EC50 was 1000 to 2000 nM.

Q: Which EC50 does the source give for `CN(C(=O)c1cccc(-n2nc(C(F)(F)F)c3c2C(Oc2ccc(C(=O)O)cc2)CCC3)c1)c1ccc(OC(F)F)nc1` (racemic) [Compound 314, 4-[[1-[3-[[6-(Difluoromethoxy)-3-pyridyl]-methyl-carbamoyl]phenyl]-3-(trifluoromethyl)-4,5,6,7-tetrahydroindazol-7-yl]oxy]benzoic acid] here?
A: Its EC50 is < 1000 nM.

Q: For `CN(C(=O)c1cccc(-n2nc(C(F)(F)F)c3c2C(Oc2ccc(C(=O)O)cc2)CCC3)c1)c1ccnc(C(F)(F)F)c1` (racemic) [Compound 315, 4-[[1-[3-[Methyl-[2-(trifluoromethyl)-4-pyridyl]carbamoyl]phenyl]-3-(trifluoromethyl)-4,5,6,7-tetrahydroindazol-7-yl]oxy]benzoic acid], which EC50 is on record?
A: The EC50 was 1000 to 2000 nM.

Q: With `COc1cc(N(C)C(=O)c2cccc(-n3nc(C(F)(F)F)c4c3C(Oc3ccc(C(=O)O)cc3)CCC4)c2)ccn1` (racemic) [Compound 316, 4-[[1-[3-[(2-methoxy-4-pyridyl)-methyl-carbamoyl]phenyl]-3-(trifluoromethyl)-4,5,6,7-tetrahydroindazol-7-yl]oxy]benzoic acid] as the molecule, how does the EC50 read?
A: Its EC50 is 1000 to 2000 nM.

Q: Which EC50 does the source give for `CC(C)Oc1cc(N(C)C(=O)c2cccc(-n3nc(C(F)(F)F)c4c3C(Oc3ccc(C(=O)O)cc3)CCC4)c2)ccn1` (racemic) [Compound 317, 4-[[1-[3-[(2-Isopropoxy-4-pyridyl)-methyl-carbamoyl]phenyl]-3-(trifluoromethyl)-4,5,6,7-tetrahydroindazol-7-yl]oxy]benzoic acid] here?
A: The EC50 was 1000 to 2000 nM.

Q: How did the EC50 turn out when `CN(C(=O)c1cccc(-n2nc(C(F)(F)F)c3c2C(Oc2ccc(CC(=O)O)cc2)CCC3)c1)c1ccc2c(c1)OC(F)(F)O2` (racemic) [Compound 318, 2-[4-[[1-[3-[(2,2-Difluoro-1,3-benzodioxol-5-yl)-methyl-carbamoyl]phenyl]-3-(trifluoromethyl)-4,5,6,7-tetrahydroindazol-7-yl]oxy]phenyl]acetic acid] was run?
A: Its EC50 is < 1000 nM.

Q: How did the EC50 turn out when `CN(C(=O)c1cccc(-n2nc(C(F)(F)F)c3c2C[C@H]2CC[C@@H]3N2)c1)c1ccc2c(c1)OCO2` (single isomer, unassigned) [Compound 048, (4R,7S)- or (4S,7R)—N-(Benzo[d][1,3]dioxol-5-yl)-N-methyl-3-(3-(trifluoromethyl)-5,6,7,8-tetrahydro-4,7-epiminocyclohepta [c]pyrazol-1(4H)-yl)benzamide] was run?
A: Its EC50 is < 1000 nM.

Q: `CN(C(=O)c1cccc(-n2nc(C(F)(F)F)c3c2C[C@H]2CC[C@@H]3N2C)c1)c1ccc2c(c1)OCO2` (single isomer, unassigned) [Compound 050, (4R,7S)- or (4S,7R)—N-(Benzo[d][1,3]dioxol-5-yl)-N-methyl-3-(9-methyl-3-(trifluoromethyl)-5,6,7,8-tetrahydro-4,7-epiminocyclohepta[c]pyrazol-1(4H)-yl)benzamide] was tested. Which EC50 did it give?
A: The EC50 was < 1000 nM.

Q: For `CN(C(=O)c1cccc(-n2nc(C(F)(F)F)c3c2C[C@H]2CC[C@@H]3N2C(=O)OC(C)(C)C)c1)c1ccc2c(c1)OCO2` (single isomer, unassigned) [Compound 052, (4R,7S)- or (4S,7R)-tert-Butyl-1-(3-(benzo[d][1,3]dioxol-5-yl(methyl)carbamoyl)phenyl)-3-(trifluoromethyl)-1,4,5,6,7,8-hexahydro-4,7-epiminocyclohepta[c]pyrazole-9-carboxylate], which EC50 is on record?
A: The EC50 was < 1000 nM.

Q: How did the EC50 turn out when `CN(C(=O)c1cccc(-n2nc(C(F)(F)F)c3c2C[C@@H]2CC[C@H]3N2C(=O)OC(C)(C)C)c1)c1ccc2c(c1)OCO2` (single isomer, unassigned) [Compound 053, (4S,7R)- or (4R,7S)-tert-Butyl-1-(3-(benzo[d][1,3]dioxol-5-yl(methyl)carbamoyl)phenyl)-3-(trifluoromethyl)-1,4,5,6,7,8-hexahydro-4,7-epiminocyclohepta[c]pyrazole-9-carboxylate] was run?
A: The EC50 was < 1000 nM.

Same assay, conditions: activity (EC50), CFBE41o- and FRT cells with stable expression of mutant CFTR

Q: How did the EC50 turn out when `CN(C(=O)c1cccc(-n2nc(C(F)(F)F)c3c2C[C@@H]2CC[C@H]3N2)c1)c1ccc2c(c1)OCO2` (single isomer, unassigned) [Compound 049, (4S,7R)- or (4R,7S)—N-(Benzo[d][1,3]dioxol-5-yl)-N-methyl-3-(3-(trifluoromethyl)-5,6,7,8-tetrahydro-4,7-epiminocyclohepta [c]pyrazol-1(4H)-yl)benzamide] was run?
A: The EC50 was 1000 to 2000 nM.

Q: Which EC50 does the source give for `CN(C(=O)c1cccc(-n2nc(C(F)(F)F)c3c2C[C@@H]2CC[C@H]3N2C)c1)c1ccc2c(c1)OCO2` (single isomer, unassigned) [Compound 051, (4S,7R)- or (4R,7S)—N-(Benzo[d][1,3]dioxol-5-yl)-N-methyl-3-(9-methyl-3-(trifluoromethyl)-5,6,7,8-tetrahydro-4,7-epiminocyclohepta[c]pyrazol-1(4H)-yl)benzamide] here?
A: Its EC50 is 1000 to 2000 nM.
